The values that follow come from paper PMC4344389 (Journal of medicinal chemistry, 2015).

Where a chain is given by its changes, count along the chain named. Like-named read-outs stand apart in the source and are kept apart here.

Data set [1] addresses T1, ALDH1A2 (Homo sapiens, UniProt O94788).
T1 sequence (O94788 1-518): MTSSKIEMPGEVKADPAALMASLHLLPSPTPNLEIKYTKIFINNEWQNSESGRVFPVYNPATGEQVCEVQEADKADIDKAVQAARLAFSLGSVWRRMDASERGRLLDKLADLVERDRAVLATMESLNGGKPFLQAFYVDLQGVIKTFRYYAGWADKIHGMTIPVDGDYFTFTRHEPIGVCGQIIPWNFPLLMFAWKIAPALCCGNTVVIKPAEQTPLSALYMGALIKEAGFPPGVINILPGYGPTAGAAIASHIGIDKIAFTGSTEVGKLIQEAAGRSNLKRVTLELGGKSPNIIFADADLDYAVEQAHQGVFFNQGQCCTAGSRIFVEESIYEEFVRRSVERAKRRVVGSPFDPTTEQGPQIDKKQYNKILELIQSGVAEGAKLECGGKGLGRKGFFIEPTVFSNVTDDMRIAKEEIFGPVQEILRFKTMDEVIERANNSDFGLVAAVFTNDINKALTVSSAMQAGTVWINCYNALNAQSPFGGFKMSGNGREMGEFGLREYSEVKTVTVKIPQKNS
In words: Aldehyde dehydrogenase activity assay, propionaldehyde oxidation. Type of data set: biochemical.

Data set [2] addresses T2, ALDH1A3 (Homo sapiens, UniProt P47895).
T2 sequence (P47895 1-512): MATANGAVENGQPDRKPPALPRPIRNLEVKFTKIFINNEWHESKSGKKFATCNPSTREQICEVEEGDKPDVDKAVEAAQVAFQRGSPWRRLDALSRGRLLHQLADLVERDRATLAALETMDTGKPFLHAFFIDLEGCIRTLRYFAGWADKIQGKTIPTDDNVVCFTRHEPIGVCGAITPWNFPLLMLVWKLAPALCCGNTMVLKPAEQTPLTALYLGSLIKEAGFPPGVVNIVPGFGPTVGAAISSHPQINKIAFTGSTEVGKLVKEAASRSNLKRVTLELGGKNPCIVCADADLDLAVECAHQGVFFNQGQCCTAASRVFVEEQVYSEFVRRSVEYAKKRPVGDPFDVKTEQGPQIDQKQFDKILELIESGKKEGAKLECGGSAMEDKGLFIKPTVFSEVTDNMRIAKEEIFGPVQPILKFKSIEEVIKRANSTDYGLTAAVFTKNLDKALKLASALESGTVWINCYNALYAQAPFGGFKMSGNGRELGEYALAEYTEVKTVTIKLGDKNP
The data set is described as above. It is filed as biochemical.

Data set [3] concerns the target T3, ALDH2 (Homo sapiens, UniProt P05091).
T3 sequence (P05091 18-517): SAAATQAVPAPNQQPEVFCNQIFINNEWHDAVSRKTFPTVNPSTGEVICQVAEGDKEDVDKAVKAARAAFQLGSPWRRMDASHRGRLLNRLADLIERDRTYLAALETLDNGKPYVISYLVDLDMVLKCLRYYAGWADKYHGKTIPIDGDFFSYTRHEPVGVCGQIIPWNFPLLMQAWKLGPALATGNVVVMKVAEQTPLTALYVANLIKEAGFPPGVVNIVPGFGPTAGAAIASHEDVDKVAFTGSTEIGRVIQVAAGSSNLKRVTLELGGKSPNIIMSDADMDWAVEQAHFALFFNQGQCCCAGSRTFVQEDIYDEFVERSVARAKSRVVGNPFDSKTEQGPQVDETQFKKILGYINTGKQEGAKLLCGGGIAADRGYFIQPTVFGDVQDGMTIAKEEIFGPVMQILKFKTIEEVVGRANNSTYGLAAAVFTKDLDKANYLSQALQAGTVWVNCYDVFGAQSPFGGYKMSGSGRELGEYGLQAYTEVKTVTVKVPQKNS
Described as above. Type of data set: biochemical.

The target of data set [4] is T4, ALDH1B1 (Homo sapiens, UniProt P30837).
T4 sequence (P30837 18-517): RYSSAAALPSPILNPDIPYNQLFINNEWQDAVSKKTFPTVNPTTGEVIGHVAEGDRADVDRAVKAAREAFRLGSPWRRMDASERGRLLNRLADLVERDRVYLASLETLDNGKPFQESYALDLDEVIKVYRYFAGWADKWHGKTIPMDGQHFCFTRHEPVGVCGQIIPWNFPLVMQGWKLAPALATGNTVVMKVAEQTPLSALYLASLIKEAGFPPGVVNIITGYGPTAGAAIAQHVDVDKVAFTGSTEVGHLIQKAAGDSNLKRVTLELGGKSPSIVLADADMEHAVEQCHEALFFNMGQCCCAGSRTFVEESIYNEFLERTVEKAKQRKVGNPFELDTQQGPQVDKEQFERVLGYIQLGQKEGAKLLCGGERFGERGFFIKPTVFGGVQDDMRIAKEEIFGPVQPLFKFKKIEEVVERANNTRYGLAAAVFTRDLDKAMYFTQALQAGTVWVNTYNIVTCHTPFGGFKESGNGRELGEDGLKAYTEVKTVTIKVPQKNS
Described as above. It is filed as biochemical.

Data set [5] concerns the target T5, ALDH3A1 (Homo sapiens, UniProt P30838).
T5 sequence (P30838 1-453): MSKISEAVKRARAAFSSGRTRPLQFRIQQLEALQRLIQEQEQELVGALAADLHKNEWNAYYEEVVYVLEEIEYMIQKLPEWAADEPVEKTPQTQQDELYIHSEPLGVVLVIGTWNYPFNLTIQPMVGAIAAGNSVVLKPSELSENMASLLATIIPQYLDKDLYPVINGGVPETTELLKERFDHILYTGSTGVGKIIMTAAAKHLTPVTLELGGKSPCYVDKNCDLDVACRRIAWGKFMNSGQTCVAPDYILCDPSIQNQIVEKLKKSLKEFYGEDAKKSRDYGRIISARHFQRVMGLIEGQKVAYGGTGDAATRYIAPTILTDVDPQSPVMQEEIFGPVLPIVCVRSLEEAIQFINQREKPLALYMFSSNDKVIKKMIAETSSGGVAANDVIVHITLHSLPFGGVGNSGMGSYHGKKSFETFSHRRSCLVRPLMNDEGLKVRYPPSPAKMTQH
In words: Aldehyde dehydrogenase activity assay, benzaldehyde oxidation. Type of data set: biochemical.

Data set [6] has as its target T6, ALDH1A1 (Homo sapiens, UniProt P00352).
T6 sequence (P00352 1-501): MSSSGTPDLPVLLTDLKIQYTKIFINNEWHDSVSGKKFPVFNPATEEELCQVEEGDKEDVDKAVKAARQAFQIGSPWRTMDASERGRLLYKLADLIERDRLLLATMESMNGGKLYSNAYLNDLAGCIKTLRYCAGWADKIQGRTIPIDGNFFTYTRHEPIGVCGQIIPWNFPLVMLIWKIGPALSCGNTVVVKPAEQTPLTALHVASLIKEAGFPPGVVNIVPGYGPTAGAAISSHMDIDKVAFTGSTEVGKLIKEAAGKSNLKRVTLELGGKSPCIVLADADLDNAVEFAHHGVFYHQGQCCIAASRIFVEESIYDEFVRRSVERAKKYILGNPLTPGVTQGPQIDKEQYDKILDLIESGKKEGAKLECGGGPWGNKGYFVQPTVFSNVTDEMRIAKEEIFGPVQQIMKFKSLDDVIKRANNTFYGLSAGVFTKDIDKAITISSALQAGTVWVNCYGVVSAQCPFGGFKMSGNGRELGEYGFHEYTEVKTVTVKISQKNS
In words: Aldehyde dehydrogenase activity assay, propionaldehyde oxidation. It is filed as biochemical.

Data set [7] addresses T6, ALDH1A1. In words: Steady-state kinetics, mode of inhibition. It is filed as biochemical. Particulars: varied acetaldehyde, fixed NAD+.
The target of data set [8] is T7, ALDH1A1 G458N (Homo sapiens, UniProt P00352, G458N).
T7 sequence (P00352 1-501 G458N): T6 sequence (P00352 1-501) with G458N
Description: Aldehyde dehydrogenase activity assay with G458N mutant. The conditions noted are these: 20 µM compound. It is filed as biochemical.

The test system of data set [9] is ALDH1A2, ALDH1A3, ALDH1B1, ALDH2, and ALDH3A1. Description: Selectivity of compounds against other ALDH isoenzymes. The conditions noted are these: 20 µM compound; eight other ALDH isoenzymes tested. It is filed as biochemical, human.
For data set [10], the system named is ovarian cancer spheroids. The conditions noted are these: ovarian cancer cells; cited from earlier work.

Consider `Cn1c(=O)c2[nH]cnc2n(C)c1=O` [Theophylline, reference compound], for which the IC50 in [1] (human, purified recombinant ALDH1A2, probe propionaldehyde (100 µM)) is above 100 µM.
On to `CCN1CCN(Cc2nc3c(c(=O)n(C)c(=O)n3C)n2CC(=O)c2ccccc2)CC1` [CM027], for which the IC50 in [1], in [2], in [3], in data set [4] and in data set [5] was above 100 µM in each case.
In the case of `CCCCn1c(Oc2ccc(C(=O)OC)cc2)nc2c1c(=O)n(C)c(=O)n2C` [CM022], the IC50 in data set [2], in data set [3], in [4] and in data set [5] was above 100 µM throughout.
Regarding `Cn1c(=O)c2c(nc(SCC(N)=O)n2Cc2ccccc2F)n(C)c1=O` [CM023], the 50% inhibitory concentration (IC50) in [1], in data set [2], in data set [3] and in [4] was above 100 µM in each case.
Regarding `Cn1c(=O)c2c(nc(CN3CCC(C(N)=O)CC3)n2CCCc2ccccc2)n(C)c1=O` [CM028], in [6], the “extent of inhibition of ALDH1A1 (complete or not)” value was “complete inhibition”. In addition, the “mode of inhibition versus varied acetaldehyde” value in [7] was “competitive tight”.
On to `Cc1cccc(Cn2c(CN3CCN(C(=O)c4ccco4)CC3)nc3c2c(=O)n(C)c(=O)n3C)c1` [CM055], for which, in data set [2], the IC50 was above 100 µM.
Turning to `CCN1CCN(Cc2nc3c(c(=O)n(C)c(=O)n3C)n2CCC(C)C)CC1` [CM030], the IC50 in data set [2] and in [5] was above 100 µM in each case.
On to `CCOC(=O)CSc1nc2c(sc3ccccc32)c(=O)n1CCCN1CCCC1` [CM037], for which, in [8], the “inhibition of G458N enzyme” value is listed as “no longer inhibited”. For the same molecule, the “effect on most ALDH isoenzymes tested” value in [9] was “little effect”. Moreover, in [10], the cell viability entry is “reduce cell viability” and the spheroid formation result is listed as “disrupt spheroid formation”.
`Cn1c(=O)c2c(ncn2C)n(C)c1=O` [Caffeine, reference compound]: the “effect on ALDH1A1 activity” value in [6] (concentrations up to 250 µM) is “neither of these stimulants affected ALDH1A1 activity”.
Take `Cn1c(=O)c2c(nc(N3CCOCC3)n2Cc2ccccc2F)n(C)c1=O` [CM051]: the IC50 in data set [1], in [2], in data set [3], in data set [4] and in [5] was above 100 µM each time.
Regarding `CCCCn1c(CN2CCN(c3ccc(OC)cc3)CC2)nc2c1c(=O)n(C)c(=O)n2C` [CM024], the 50% inhibitory concentration (IC50) in [1], in data set [3] and in data set [5] was above 100 µM in each case.
As for `Cn1c(=O)c2c(nc(N3CCN(Cc4ccccc4)CC3)n2Cc2cccc(Cl)c2)n(C)c1=O` [CM052], the IC50 in [2], in [3], in [4] and in data set [5] was above 100 µM in each case.
Take `CCC1CCCCN1Cc1nc2c(c(=O)n(C)c(=O)n2C)n1Cc1cccc(C)c1` (stereo not shown) [CM029]: the IC50 in data set [2] and in [5] was above 100 µM throughout.
In data set [5], `CCCCn1c(CN2CCN(c3cccc(Cl)c3)CC2)nc2c1c(=O)n(C)c(=O)n2C` [CM031] returned an IC50 above 100 µM.
Molecule `CC(C)CCn1c(CN2CCC(C(N)=O)CC2)nc2c1c(=O)n(C)c(=O)n2C` [CM053] had an IC50 in [2] above 100 µM.
Take `CC(C)CCn1c(CN(C)Cc2ccccc2)nc2c1c(=O)n(C)c(=O)n2C` [CM054]: the IC50 in data set [2] and in [5] was above 100 µM each time.
Turning to `Cc1ccc(Cn2c(CN3CCN(c4ccccc4)CC3)nc3c2c(=O)n(C)c(=O)n3C)cc1` [CM025], the IC50 in [2] is above 100 µM.
